Test results published in patent US11110082B2, “Tyrosine kinase inhibitors” (Rigel Pharmaceuticals, Inc., priority 2016, dated 2021).

Each compound was assayed against T1, MerTK (Homo sapiens, UniProt Q12866) (assay: PAKT HTRF-HUVEC assay (pAkt Ser473 HTRF after anti-human MerTK-XL stimulation)). Conditions: HUVEC cells, 1 hour compound, stimulated with anti-human MerTK-XL 1 ug/mL for 10 minutes, read-out: inhibition of MerTK.
T1 construct: Seed HUVECs (10K cells/well) in EBM-2 complete media; host or cells: HUVEC (primary human umbilical vein endothelial cells)
T1 sequence (Q12866 21-999): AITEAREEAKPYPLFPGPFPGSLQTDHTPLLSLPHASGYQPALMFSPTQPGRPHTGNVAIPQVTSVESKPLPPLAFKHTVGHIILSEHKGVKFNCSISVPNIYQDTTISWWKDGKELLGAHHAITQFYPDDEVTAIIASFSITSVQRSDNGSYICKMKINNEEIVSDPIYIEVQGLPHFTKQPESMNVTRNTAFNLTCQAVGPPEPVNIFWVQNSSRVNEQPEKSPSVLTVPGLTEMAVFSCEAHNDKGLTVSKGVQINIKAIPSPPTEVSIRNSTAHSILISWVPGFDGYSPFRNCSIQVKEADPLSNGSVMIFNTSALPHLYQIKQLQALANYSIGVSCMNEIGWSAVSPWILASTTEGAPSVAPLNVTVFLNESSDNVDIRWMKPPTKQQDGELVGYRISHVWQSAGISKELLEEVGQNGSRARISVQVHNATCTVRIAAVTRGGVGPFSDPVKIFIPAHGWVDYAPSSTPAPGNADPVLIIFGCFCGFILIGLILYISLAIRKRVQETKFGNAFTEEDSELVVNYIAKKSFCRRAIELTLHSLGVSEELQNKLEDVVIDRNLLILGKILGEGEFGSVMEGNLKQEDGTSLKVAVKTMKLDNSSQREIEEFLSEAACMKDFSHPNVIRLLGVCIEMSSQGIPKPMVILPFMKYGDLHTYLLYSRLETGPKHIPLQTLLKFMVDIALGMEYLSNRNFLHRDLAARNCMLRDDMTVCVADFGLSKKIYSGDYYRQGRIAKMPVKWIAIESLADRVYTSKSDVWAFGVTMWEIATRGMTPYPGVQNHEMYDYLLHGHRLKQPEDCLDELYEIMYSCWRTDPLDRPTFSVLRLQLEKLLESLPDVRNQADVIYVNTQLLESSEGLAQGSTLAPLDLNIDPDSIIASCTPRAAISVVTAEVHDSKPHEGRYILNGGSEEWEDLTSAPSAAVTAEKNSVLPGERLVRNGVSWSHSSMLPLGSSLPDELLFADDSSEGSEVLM
Type: cell-based
Method in brief: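 HUVECs starved 3-4 h in basal medium, preincubated with compound 1 h at 37° C, then stimulated 10 min with cross-linked anti-human MerTK antibody (final 1 ug/mL). Lysates read for pAkt (Ser473) by HTRF; EC50 from curve fitting.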

EC50 [nM] | SMILES
512 | CCCCNc1ncc2c3ccc(CN4CCN(C)CC4)cc3c(=O)n([C@H]3CC[C@H](NC(C)=O)C3)c2n1 [Compound 233, N-((1S,3S)-3-(3-(butylamino)-8-((4-methylpiperazin-1-yl)methyl)-6-oxopyrimido[4,5-c]isoquinolin-5(6H)-yl)cyclopentyl)acetamide]
130 | CCCCNc1ncc2c3ccc(CN4CCN(C)CC4)cc3c(=O)n([C@H]3CC[C@H](N(C)C)C3)c2n1 [Compound 236, 3-(butylamino)-5-((1S,3S)-3-(dimethylamino)cyclopentyl)-8-((4-methylpiperazin-1-yl)methyl)pyrimido[4,5-c]isoquinolin-6(5H)-one]
220 | CCCCNc1ncc2c3ccc(CN4CCN(C)CC4)cc3c(=O)n([C@H]3CC[C@H](NCC(N)=O)C3)c2n1 [Compound 237, 2-(((1S,3S)-3-(3-(butylamino)-8-((4-methylpiperazin-1-yl)methyl)-6-oxopyrimido[4,5-c]isoquinolin-5(6H)-yl)cyclopentyl)amino)acetamide]
160 | CCCCNc1ncc2c3ccc(CN4CCN(C)CC4)cc3c(=O)n([C@H]3CC[C@H](NCCO)C3)c2n1 [Compound 238, 3-(butylamino)-5-((1S,3S)-3-((2-hydroxyethyl)amino)cyclopentyl)-8-((4-methylpiperazin-1-yl)methyl)pyrimido[4,5-c]isoquinolin-6(5H)-one]
947 | CCCCNc1ncc2c3ccc(CN4CCN(C)CC4)cc3c(=O)n([C@H]3CC[C@H](NC(=N)N)C3)c2n1 [Compound 239, 1-((1S,3 S)-3-(3-(butylamino)-8-((4-methylpiperazin-1-yl)methyl)-6-oxopyrimido[4,5-c]isoquinolin-5(6H)-yl)cyclopentyl)guanidine]

SMILES | EC50 [nM]
CCCCNc1ncc2c3ccc(CN4CCN(C)CC4)cc3c(=O)n([C@@H]3CC[C@@H](O)C3)c2n1 [Compound 235, 3-(butylamino)-5-((1R,3R)-3-hydroxycyclopentyl)-8-((4-methylpiperazin-1-yl)methyl)pyrimido[4,5-c]isoquinolin-6(5H)-one] | 264
